Reference: patent US9586951B2 (FUJIFILM Corporation, priority 2013, dated 2017)

Tests used:
ATM = target: T1, ATM (Homo sapiens, UniProt Q13315); assay: ATM inhibition test (phosphorylation of Chk2 generated by ionizing radiation, AlphaScreen SureFire); format: cell-based; conditions: phosphorylated Chk2 in NCI-H460 cells, ionizing radiation 8Gy, 1 hour after test compound treatment; read-out: ATM inhibitory activity
T1 construct: detecting phosphorylation of Chk2 in a human non-small cell lung cancer cell line NCI-H460 (ATCC company); host or cells: NCI-H460 human non-small cell lung cancer cells
T1 sequence (Q13315 whole entry): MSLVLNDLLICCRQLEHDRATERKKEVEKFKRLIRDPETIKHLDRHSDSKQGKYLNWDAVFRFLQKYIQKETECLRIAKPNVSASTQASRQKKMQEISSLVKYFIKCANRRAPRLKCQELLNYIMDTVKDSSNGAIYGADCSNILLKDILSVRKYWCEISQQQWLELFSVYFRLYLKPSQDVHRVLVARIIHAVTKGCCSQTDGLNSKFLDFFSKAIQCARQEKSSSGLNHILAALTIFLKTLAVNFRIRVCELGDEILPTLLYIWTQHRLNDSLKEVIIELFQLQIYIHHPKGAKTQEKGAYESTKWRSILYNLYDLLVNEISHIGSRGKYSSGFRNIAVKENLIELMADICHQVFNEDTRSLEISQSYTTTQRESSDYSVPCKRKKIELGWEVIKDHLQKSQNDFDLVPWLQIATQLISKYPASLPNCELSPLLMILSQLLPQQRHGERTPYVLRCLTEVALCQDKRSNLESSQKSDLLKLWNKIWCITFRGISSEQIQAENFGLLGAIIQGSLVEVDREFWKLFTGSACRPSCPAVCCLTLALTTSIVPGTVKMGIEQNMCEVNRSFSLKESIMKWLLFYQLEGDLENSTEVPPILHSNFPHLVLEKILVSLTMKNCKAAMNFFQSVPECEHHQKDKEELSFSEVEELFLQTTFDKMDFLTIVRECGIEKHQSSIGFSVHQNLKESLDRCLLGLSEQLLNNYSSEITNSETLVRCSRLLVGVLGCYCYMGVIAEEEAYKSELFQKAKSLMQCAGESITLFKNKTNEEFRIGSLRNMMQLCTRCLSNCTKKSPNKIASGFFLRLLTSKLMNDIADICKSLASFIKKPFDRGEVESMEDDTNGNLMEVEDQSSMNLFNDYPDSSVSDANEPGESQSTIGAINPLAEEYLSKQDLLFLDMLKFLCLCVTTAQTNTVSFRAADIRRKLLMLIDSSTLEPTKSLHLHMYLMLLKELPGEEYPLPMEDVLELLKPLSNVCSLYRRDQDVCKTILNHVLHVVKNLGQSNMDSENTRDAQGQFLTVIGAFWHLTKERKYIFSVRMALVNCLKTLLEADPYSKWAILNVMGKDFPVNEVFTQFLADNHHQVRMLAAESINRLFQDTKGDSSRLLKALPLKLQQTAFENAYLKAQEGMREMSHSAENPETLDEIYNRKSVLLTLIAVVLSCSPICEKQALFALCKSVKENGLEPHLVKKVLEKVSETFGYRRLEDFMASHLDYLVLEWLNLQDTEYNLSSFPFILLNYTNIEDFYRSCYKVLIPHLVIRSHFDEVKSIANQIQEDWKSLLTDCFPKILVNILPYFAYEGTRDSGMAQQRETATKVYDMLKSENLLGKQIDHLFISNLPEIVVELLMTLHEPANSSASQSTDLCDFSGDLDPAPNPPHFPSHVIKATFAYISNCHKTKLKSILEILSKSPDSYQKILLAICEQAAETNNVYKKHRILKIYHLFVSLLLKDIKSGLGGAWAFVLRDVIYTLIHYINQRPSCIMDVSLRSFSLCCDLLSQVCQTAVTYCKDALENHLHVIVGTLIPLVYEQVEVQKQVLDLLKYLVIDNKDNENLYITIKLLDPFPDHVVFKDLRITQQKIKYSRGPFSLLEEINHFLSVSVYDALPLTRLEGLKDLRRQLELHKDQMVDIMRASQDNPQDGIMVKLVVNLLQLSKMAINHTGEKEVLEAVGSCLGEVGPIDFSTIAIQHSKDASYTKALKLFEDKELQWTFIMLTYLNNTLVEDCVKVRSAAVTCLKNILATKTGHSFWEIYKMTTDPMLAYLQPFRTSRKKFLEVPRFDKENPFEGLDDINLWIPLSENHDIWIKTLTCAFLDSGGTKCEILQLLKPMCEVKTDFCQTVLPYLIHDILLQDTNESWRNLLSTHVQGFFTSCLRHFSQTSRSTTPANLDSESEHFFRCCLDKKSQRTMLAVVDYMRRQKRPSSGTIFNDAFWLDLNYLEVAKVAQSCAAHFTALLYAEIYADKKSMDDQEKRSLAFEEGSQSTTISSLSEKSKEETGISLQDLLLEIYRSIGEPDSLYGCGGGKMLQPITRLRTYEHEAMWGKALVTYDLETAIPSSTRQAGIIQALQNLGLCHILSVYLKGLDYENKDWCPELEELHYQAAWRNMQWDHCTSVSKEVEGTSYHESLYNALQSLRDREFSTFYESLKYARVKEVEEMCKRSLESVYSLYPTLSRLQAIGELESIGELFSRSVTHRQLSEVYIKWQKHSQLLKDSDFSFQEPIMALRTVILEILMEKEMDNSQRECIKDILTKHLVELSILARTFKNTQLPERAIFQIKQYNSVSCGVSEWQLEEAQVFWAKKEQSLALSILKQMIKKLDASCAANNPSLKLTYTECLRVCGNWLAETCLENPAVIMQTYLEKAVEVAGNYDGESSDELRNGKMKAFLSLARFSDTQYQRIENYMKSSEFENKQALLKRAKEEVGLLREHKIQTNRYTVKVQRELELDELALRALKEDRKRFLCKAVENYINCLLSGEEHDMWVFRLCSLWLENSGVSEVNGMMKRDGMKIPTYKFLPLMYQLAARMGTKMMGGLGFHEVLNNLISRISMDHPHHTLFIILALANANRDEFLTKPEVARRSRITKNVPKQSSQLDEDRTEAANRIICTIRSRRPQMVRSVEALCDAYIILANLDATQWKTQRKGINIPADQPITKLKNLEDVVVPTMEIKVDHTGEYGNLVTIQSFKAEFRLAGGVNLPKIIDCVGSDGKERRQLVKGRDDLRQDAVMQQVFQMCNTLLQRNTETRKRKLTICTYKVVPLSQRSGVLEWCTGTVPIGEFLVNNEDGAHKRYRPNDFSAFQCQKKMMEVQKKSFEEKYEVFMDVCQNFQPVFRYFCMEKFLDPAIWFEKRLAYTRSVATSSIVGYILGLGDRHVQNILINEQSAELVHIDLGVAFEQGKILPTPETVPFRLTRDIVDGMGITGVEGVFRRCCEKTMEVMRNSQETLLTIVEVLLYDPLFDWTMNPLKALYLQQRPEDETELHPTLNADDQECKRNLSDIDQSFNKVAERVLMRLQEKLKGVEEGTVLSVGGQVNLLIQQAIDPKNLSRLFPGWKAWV
Summary of the method: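 Human NCI-H460 lung cancer cells were treated with compound for 1 h, then irradiated at 8Gy and incubated 1 h at 37° C. Phospho-Chk2 was quantified by AlphaScreen SureFire; inhibition % was normalised between irradiated untreated and non-irradiated untreated wells.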

[1] = test system: human non-small cell lung cancer cell line NCI-H460; assay: Cell proliferation inhibition test by sensitivity-enhancing to ionizing radiation (Cell Titer Glo); format: cell-based; conditions: Homo sapiens, NCI-H460, 120 h, concentration in which SER became 2; NCI-H460 cells, ionizing radiation 2 Gy, cultured 120 hour
Experimental: A human non-small cell lung cancer cell line NCI-H460 (ATCC company) was adjusted so as to be 2×10^3 cells/mL in a RPMI-1640 medium containing penicillin/streptomycin and FBS having a final concentration of 10%, and this was seeded by 100 μL per well in 96-well CellBIND® plates (Corning International Inc.). After 24 hours, the medium of cells was replaced with 100 μL of a medium including serially diluted liquid of the test compound or DMSO having a final concentration of 0.1%. 30 minutes after the medium was replaced, half of the plates were irradiated with ionizing radiation 2 Gy (Faxitron Bioptics, LLC, RX-650 type). The cells of the plates irradiated with ionizing radiation and the plates not being irradiated with ionizing radiation were cultured at 37° C. for 120 hour in 5% CO2. After a Cell Titer Glo reaction liquid of an equal volume was added to each well, the amount of luminescence was measured, according to the instruction book of Cell Titer Glo (Promega Corporation). Since the amount of luminescence is proportional to the ATP concentration in cells, the amount of luminescence was used as an indicator of the number of viable cells. Sensitivity-enhancing effects (SER) to ionizing radiation by the test compound was calculated by the following equation. SER=(amount of luminescence of wells including DMSO having a final concentration of 0.1% in the plates irradiated with ionizing radiation×amount of luminescence of wells including a compound in the plates not being irradiated with ionizing radiation)/(amount of luminescence of wells including the test compound in the plates irradiated with ionizing radiation×amount of luminescence of wells including DMSO having a final concentration of 0.1% in the plates not being irradiated with ionizing radiation)
SER at each compound concentration was plotted by nonlinear regression fit (FitModel (205)) by a sigmoidal dose-response equation using XLfit software (IDBS), and the concentration (SER2) in which SER became 2 was calculated.

SMILES	IC50 (ATM)	SER2 (concentration at which the radiation sensitivity-enhancement ratio reaches 2) [1]
Cc1ccnc(C(CF)Nc2ccc3c(c2)Sc2cccc(-c4cc(N5CCOCC5)cc(=O)[nH]4)c2S3)n1 (stereo not shown) [Example 1-12-89, 6-(7-((2-Fluoro-1-(4-methylpyrimidin-2-yl)ethyl)amino)thianthren-1-yl)-4-morpholino pyridin-2(1H)-one]	< 100 nM	100 to 500 nM
COc1ncccc1CN1CCC(Nc2ccc3c(c2)Cc2cccc(-c4cc(N5CCOCC5)cc(=O)[nH]4)c2O3)CC1 [Example 2-28-5, 6-(7-((1-((2-Methoxypyridin-3-yl)methyl)piperidin-4-yl)amino)-9H-xanthen-4-yl)-4-morpholino pyridin-2(1H)-one]	< 100 nM	500 to 2000 nM
COc1ccnc(C(C)Nc2ccc3c(c2)Cc2cccc(-c4cc(N5CCOCC5)cc(=O)[nH]4)c2O3)c1 (single isomer, unassigned) [Example 2-14-86-2, 6-(7-((1-(4-methoxypyridin-2-yl)ethyl)amino)-9H-xanthen-4-yl)-4-morpholinopyridin-2(1H)-one]	< 100 nM	100 to 500 nM
COCCOCC(Nc1ccc2c(c1)Sc1cccc(-c3cc(N4CCOCC4)cc(=O)[nH]3)c1S2)c1ccc(C)cn1 (stereo not shown) [Example 1-12-102, 6-(7-((2-(2-Methoxyethoxy)-1-(5-methylpyridin-2-yl)ethyl)amino)thianthren-1-yl)-4-morpholino pyridin-2(1H)-one]	< 100 nM	100 to 500 nM
Cc1cccc(C(CCN(C)C)Nc2ccc3c(c2)Sc2cccc(-c4cc(N5CCOCC5)cc(=O)[nH]4)c2S3)n1 (stereo not shown) [Example 1-22-1, 6-(7-((3-(dimethylamino)-1-(6-methylpyridin-2-yl)propyl)amino)thianthren-1-yl)-4-morpholinopyridin-2(1H)-one]	< 100 nM	100 to 500 nM
COc1ccc(CNc2ccc3c(c2)Cc2cccc(-c4cc(N5CCOCC5)cc(=O)[nH]4)c2S3)cn1 [Example 3-8-10, 6-(7-(((6-Methoxypyridin-3-yl)methyl)amino)-9H-thioxanthen-4-yl)-4-morpholino pyridin-2(1H)-one]	< 100 nM	100 to 500 nM
CC(Nc1ccc2c(c1)Sc1cccc(-c3cc(N4CCOCC4)cc(=O)[nH]3)c1S2)c1nccc(CF)n1 (stereo not shown) [Example 1-12-85, 6-(7-((1-(4-(Fluoromethyl)pyrimidin-2-yl)ethyl)amino)thianthren-1-yl)-4-morpholino pyridin-2(1H)-one]	< 100 nM	< 100 nM
O=c1cc(N2CCOCC2)cc(-c2cccc3c2Oc2ccc(NCc4cnc5ccccc5c4)cc2S3)[nH]1 [Example 4-4-15, 4-Morpholino-6-(8-((quinolin-3-ylmethyl)amino)phenoxathiin-4-yl) pyridin-2(1H)-one]	< 100 nM	100 to 500 nM
CC(CN1CCN(c2ccccc2)CC1)Nc1ccc2c(c1)Sc1cccc(-c3cc(N4CCOCC4)cc(=O)[nH]3)c1S2 (stereo not shown) [Example 1-13-15, 4-Morpholino-6-(7-((1-(4-phenylpiperazin-1-yl)propan-2-yl)amino)thianthren-1-yl)pyridin-2 (1H)-one]	< 100 nM	100 to 500 nM
COC[C@H](CN1CCOC[C@@H]1C)Nc1ccc2c(c1)Sc1cccc(-c3cc(N4CCOCC4)cc(=O)[nH]3)c1S2 [Example 1-46-5, 6-(7-(((S)-1-Methoxy-3-((S)-3-methylmorpholino)propan-2-yl)amino)thianthren-1-yl)-4-morpholino pyridin-2(1H)-one]	< 100 nM	100 to 500 nM
COCCOCC(Nc1ccc2c(c1)Sc1cccc(-c3cc(N4CCOCC4)cc(=O)[nH]3)c1S2)c1ncc(C)cn1 (stereo not shown) [Example 1-12-98, 6-(7-((2-(2-Methoxyethoxy)-1-(5-methylpyrimidin-2-yl)ethyl)amino)thianthren-1-yl)-4-morpholino pyridin-2(1H)-one]	< 100 nM	100 to 500 nM
CN(C)c1cncc(CNc2ccc3c(c2)Cc2cccc(-c4cc(N5CCOCC5)cc(=O)[nH]4)c2O3)c1 [Example 2-21-7, 6-(7-(((5-(Dimethylamino)pyridin-3-yl)methyl)amino)-9H-xanthen-4-yl)-4-morpholino pyridin-2(1H)-one]	< 100 nM	500 to 2000 nM
Cc1ccnc(CNc2ccc3c(c2)Cc2cccc(-c4cc(N5CCOCC5)cc(=O)[nH]4)c2O3)c1 [Example 2-2-40, 6-(7-(((4-Methylpyridin-2-yl)methyl)amino)-9H-xanthen-4-yl)-4-morpholino pyridin-2(1H)-one]	< 100 nM	100 to 500 nM
O=c1cc(N2CCOCC2)cc(-c2cccc3c2Oc2ccc(NCc4cncc(Br)c4)cc2S3)[nH]1 [Example 4-8-22, 6-(8-(((5-Bromopyridin-3-yl)methyl)amino)phenoxathiin-4-yl)-4-morpholino pyridin-2(1H)-one]	< 100 nM	100 to 500 nM
O=c1cc(N2CCOCC2)cc(-c2cccc3c2Sc2ccc(NCc4cc(C5CC5)ccn4)cc2S3)[nH]1 [Example 1-12-14, 6-(7-(((4-Cyclopropylpyridin-2-yl)methyl)amino)thianthren-1-yl)-4-morpholino pyridin-2(1H)-one]	< 100 nM	100 to 500 nM
O=c1cc(N2CCOCC2)cc(-c2cccc3c2Sc2ccc(N[C@@H]4CCCC[C@H]4N4CCOCC4)cc2S3)[nH]1 [Example 1-48-1, 4-Morpholino-6-(7-(((1R,2R)-2-morpholinocyclohexyl)amino)thianthren-1-yl)pyridin-2(1H)-one]	< 100 nM	100 to 500 nM
COC[C@H](CN1CCOC[C@H]1C)Nc1ccc2c(c1)Sc1cccc(-c3cc(N4CCOCC4)cc(=O)[nH]3)c1S2 [Example 1-46-4, 6-(7-(((S)-1-Methoxy-3-((R)-3-methylmorpholino)propan-2-yl)amino)thianthren-1-yl)-4-morpholino pyridin-2(1H)-one]	< 100 nM	100 to 500 nM
COc1cccnc1CNc1ccc2c(c1)Sc1cccc(-c3cc(N4CCOCC4)cc(=O)[nH]3)c1O2 [Example 4-4-22, 6-(8-(((3-Methoxypyridin-2-yl)methyl)amino)phenoxathiin-4-yl)-4-morpholino pyridin-2(1H)-one]	< 100 nM	500 to 2000 nM
O=c1cc(N2CCOCC2)cc(-c2cccc3c2Oc2ccc(NCc4cc(C5CC5)ccn4)cc2C3)[nH]1 [Example 2-13-10, 6-(7-(((4-Cyclopropylpyridin-2-yl)methyl)amino)-9H-xanthen-4-yl)-4-morpholino pyridin-2(1H)-one]	< 100 nM	100 to 500 nM
CN(C)c1ncc(CNc2ccc3c(c2)Sc2cccc(-c4cc(N5CCOCC5)cc(=O)[nH]4)c2S3)cn1 [Example 1-12-11, 6-(7-(((2-(Dimethylamino)pyrimidin-5-yl)methyl)amino)thianthren-1-yl)-4-morpholino pyridin-2(1H)-one]	< 100 nM	100 to 500 nM
COC(C)(C)c1cncc(CNc2ccc3c(c2)Cc2cccc(-c4cc(N5CCOCC5)cc(=O)[nH]4)c2O3)c1 [Example 2-14-12, 6-(7-(((5-(2-Methoxypropan-2-yl)pyridin-3-yl)methyl)amino)-9H-xanthen-4-yl)-4-morpholino pyridin-2 (1H)-one]	< 100 nM	100 to 500 nM
O=c1cc(N2CCOCC2)cc(-c2cccc3c2Oc2ccc(NCc4cncc(N5CCCC5)c4)cc2S3)[nH]1 [Example 4-4-7, 4-Mmorpholino-6-(8-(((5-(pyrrolidin-1-yl)pyridin-3-yl)methyl)amino)phenoxathiin-4-yl)pyridin-2(1H)-one]	< 100 nM	100 to 500 nM
COCCOCC(Nc1ccc2c(c1)Sc1cccc(-c3cc(N4CCOCC4)cc(=O)[nH]3)c1S2)c1nccc(C)n1 (stereo not shown) [Example 1-12-97, 6-(7-((2-(2-Methoxyethoxy)-1-(4-methylpyrimidin-2-yl)ethyl)amino)thianthren-1-yl)-4-morpholino pyridin-2(1H)-one]	< 100 nM	100 to 500 nM
